Laboratory results reported in US5808109A, “Compounds that inhibit complement and/or suppress immune activity” (T Cell Sciences, Inc., priority 1995, dated 1998).
Where two headings read alike, the source gives them in different places.

Assays:
CD8 protein release = CD8 protein release into supernatant of stimulated PBL cultures (enzyme immunoassay); assay type: cell-based, human; details: stimulated PBL cultures (FIG. 7)
Experimental: Release of cell surface interleukin-2 receptor (IL-2R) or CD8 antigen from lymphocytes is a correlate of T cell activation (Rubin et al. J. Immunol. 1985, 135, 3172-77; Rubin et al. Fed. proc. 1985 44, 946; Fujimoto, J. et al. J. Exp. Med. 1983, 159, 752-66; Tomkinson, B. et al. 2d Annual Conference on Clinical Immunol. Washington, D.C., Oct. 30, 1987). In some experiments, the level of IL-2R or CD8 protein released into the supernatant of the PBL cultures was assessed by removing aliquots therefrom just prior to pulsing with ^3 H-thymidine. Commercially available enzyme immunoassay kits (CELLFREE™ IL-2R, Cat. No. CK1020, T Cell Sciences, Inc., Cambridge, Mass., or CELL-FREE™ T8/CD8, Cat. No. CK1040, T Cell Sciences) were used to determine the levels of the two analytes.

human complement = test: Inhibition of complement-mediated hemolysis, human serum, sensitized sheep erythrocytes; assay type: biochemical
Experimental: The ability to inhibit complement was also tested by assaying for inhibition of complement-mediated red cell lysis (hemolysis). The inhibition of hemolysis was determined as a function of compound concentration. The compounds to be tested were diluted in 0.1M Hepes buffer (0.15N NaCl, pH 7.4), and 50 μl were added to each well of a V-bottom microtiter plate. Human serum, used as the complement source, was diluted 1 to 500 in Hepes buffer, and 50 μl were added to each well. Next, commercially available sheep erythrocytes with anti-sheep antibody (Diamedix Cat. No. 789-001) were used as received and added at 100 μl/well to initiate the complement pathway leading to hemolysis. The plate was incubated for 60 minutes at 37° C. and then centrifuged at 500×g for 10 minutes. The supernatants were removed and placed in a flat-bottom microtiter plate. The extent of hemolysis was measured as a function of the sample absorbance at 410 nm. The maximal absorbance (corresponding to maximal hemolysis), Amax, was obtained from the absorbance value of an erythrocyte sample containing only human serum, AS, less the absorbance of a sample containing only the red cells, A0. Thus, Amax =AS -A0. The difference between the absorbance of an erythrocyte sample containing both human serum and inhibitive compound, and the absorbance of a cell sample containing inhibitive compound only, was defined as Asample. The inhibition, IH, was expressed as the fraction (Amax -Asample)/Amax, and IH50 was defined as the concentration of inhibitive compound required to produce a value of IH=1/2.
The 4 substituted spirobenzofuran compounds of example 7 and the disubstituted spirobenzofuran compounds of example 8 were tested for their capacity to inhibit complement-mediated lysis of sheep red blood cells (SRBC) as described in Section 6.6.2 supra with the modification that the human serum used as the complement source was diluted to 1 to 100 in Hepes buffer, instead of […]. The results of the hemolysis assays are shown in FIG. 8 and Tables XI and XII.

C5a production = test: Inhibition of C5a production in human serum (aggregated IgG, RIA); assay type: biochemical; details: concentration inhibiting C5a production 50% relative to control
Experimental: The ability to inhibit complement was tested by assaying for specific inhibition of C3a and C5a production. For all experiments, a single human serum pool, to be used as a source of complement, was aliquoted and stored frozen at -70° C. Human IgG was heat-aggregated, aliquoted, and stored frozen at -70° C. For each experiment, serum aliquots were equilibrated at 37° C. with varying concentrations of the compounds tested. The classical complement pathway was initiated by the addition of aggregated human IgG. Control samples containing no IgG were always included. After a fixed reaction time of 10 minutes (determined in an earlier time-course study to provide a convenient time interval during which the production of C5a or C3a is nearly complete, i.e., greater than 90%), the levels of the released complement peptides (C5a or C3a) were determined by radioimmunoassay using commercially available radioimmunoassay (RIA) kits (C5a RIA, UpJohn Cat. No. 3250-02; C3a RIA, UpJohn Cat. No. 3245-01; C5a RIA, Amersham Cat. No. RPA.520; C3a RIA, Amersham RPA.518).
Since a competitive immunoassay was used, complement peptide (C5a and C3a) concentrations varied inversely with the counts. The Counts Bound (CB) for a sample was defined as the total counts (in counts per minute, cpm) measured in the pellet minus the counts measured in a nonspecific binding (NSB) control. The NSB control was a sample containing only tracer peptide (^125 I-labelled) and second precipitating antiserum; it contained no C5a- or C3a-specific antiserum.
The y-axis in FIG. 2 represents the fraction inhibition. The fraction inhibition is equal to the Counts Bound (CB) for a "sample," less the CB in the "sample with no added compound," divided by the CB for the "no IgG control" less the CB in the "sample with no added compound." [formula]
FIG. 2 is representative of the data plots obtained from the assays described above.

[1] = system: K562 erythromyeloid leukemia cells (NK-sensitive target cells); test: Inhibition of natural killer activity, 51Cr release cytotoxicity assay; assay type: cell-based; details: effector:target 50:1, 4 h
Experimental: (§1) Compounds were tested for their effects on the ability of peripheral blood mononuclear cells to lyse NK-sensitive target cells, K562. NK activity was determined using ^51 Cr-labeled K562 erythromyeloid leukemia cells as targets, and normal peripheral blood mononuclear cells as effector cells, in a four hour cytotoxicity assay. Effector cells were isolated from fresh blood by Ficoll-Hypaque gradient centrifugation, and 100 μl of a 5×10^5 cell/well suspension were added to each well of a V-bottom microtiter plate. The compound 11a was diluted in RPMI 1640 medium containing 10% fetal calf serum and dispensed at 100 μl per well. Target cells (K562) were labeled for 30 minutes with 100 μCi of ^51 Cr, washed thoroughly and dispensed in a 20 μl volume at 10^4 cells/well. […] The microtiter plate was centrifuged at 50×g for 5 minutes and incubated in a humidified chamber with 5% CO2 at 37° C. After 4 hours, 100 μl were removed from each well and the radioactivity was measured with a LKB 1275 gamma counter. The percent specific lysis was calculated as follows:
(§2) % specific lysis=[(EXP-SR)/(TOTAL-B)]×100
(§3) where EXP (experimental value) was obtained using effector and target cells; SR (the spontaneous release) was obtained from target cells incubated with media alone; TOTAL release was obtained by hypotonic lysis in water; and B represents instrumental background. Means were calculated from quadruplicate wells and the standard deviations never exceeded 10%. Viability of the effector cells incubated with the test compound was determined by trypan blue exclusion.

[2] = as above; assay type: cell-based; details: human, k562 cells, read-out: Spont. Release Target Cells Alone (K562)
Experimental: as §1, §2, §3

COc1ccc(C(=O)O)c2c1CC1(CCCCC1)O2 [Compound 11a, 7-carboxy-4-methoxyspiro[benzofuran-2(3H)-cyclohexane]]
CD8 protein release (CD8 protein release): inhibitor
IC50 (human complement; Table VII, human serum, read-out: IHO50): 1330 µM
IC50 (human complement; Table XI, human serum diluted 1 to 100, read-out: IH50 Mean): 1330 µM
IC50 (human complement; from FIG. 3 plot, read-out: IH50 (the source's name)): ~900 µM
IC50 (C5a production): 5000 µM
% Specific Lysis ([1]; 0.4 mM): 7%
% Specific Lysis ([1]; 0.8 mM): 4%
% Specific Lysis ([1]; 1.6 mM): 1%
% Specific Lysis ([1]; 3.2 mM): -1%
% Specific Lysis ([1]; 6.4 mM): 18%
% spontaneous 51Cr release of K562 target cells alone at 4 h, 400 µM ([2]; 0.4 mM): 5%
% spontaneous 51Cr release of K562 target cells alone at 4 h, 800 µM ([2]; 0.8 mM): 5%
% spontaneous 51Cr release of K562 target cells alone at 4 h, 1600 µM ([2]; 1.6 mM): 5%
% spontaneous 51Cr release of K562 target cells alone at 4 h, 3200 µM ([2]; 3.2 mM): 5%
% spontaneous 51Cr release of K562 target cells alone at 4 h, 6400 µM ([2]; 6.4 mM): 23%
